From patent US7402606B2, “Derivatives of 1-(oxoaminoacetyl) pentylcarbamate as cathepsin K inhibitors for the treatment of bone loss” (SmithKline Beecham Corporation, priority 2002, dated 2008)

Target: T1, human cathepsin K (Homo sapiens, UniProt P43235)
T1 construct: The proform of cathepsin K was converted to mature cathepsin K by brief exposure to pH 4; made in house; host or cells: baculovirus; Trichoplusia ni High Five cells (virus raised in Sf-9)
T1 sequence (P43235 115-329): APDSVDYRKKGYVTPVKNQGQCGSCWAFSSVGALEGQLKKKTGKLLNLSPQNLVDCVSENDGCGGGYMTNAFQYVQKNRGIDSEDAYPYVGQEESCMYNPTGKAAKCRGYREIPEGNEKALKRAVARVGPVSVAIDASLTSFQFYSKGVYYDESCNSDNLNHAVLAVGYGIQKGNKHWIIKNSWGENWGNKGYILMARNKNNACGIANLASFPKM
Test: Cathepsin K inhibition assay, human recombinant enzyme, fluorogenic substrate Cbz-Phe-Arg-AMC
Format: biochemical
Conditions: Table 1, human cathepsin K; read-out: h Cat K IC50
Procedure, shortened: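 Recombinant human cathepsin K (baculovirus/insect-cell proform, activated at pH 4 with 5 mM L-cysteine) assayed with 10 μM Cbz-Phe-Arg-AMC, 10% DMSO, 30 °C.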

`CCCC[C@H](NC(=O)O[C@@H]1CN(C(=O)Nc2ccccc2)CC1(C)C)C(=O)C(=O)N[C@H](C)c1ccccc1` [Example 63, (3S)-1-(Anilinocarbonyl)-4,4-dimethylpyrrolidinyl (1S)-1-(oxo{[(1R)-1-phenylethyl]amino}acetyl)pentylcarbamate] and `CCCC[C@H](NC(=O)O[C@@H]1CN(C(=O)NCc2ccccc2)CC1(C)C)C(=O)C(=O)N[C@H](C)c1ccccc1` [Example 64] fall in the same range of IC50: 1 to 10 nM for the first, 1 to 10 nM for the second.

Compared with `CCCC[C@H](NC(=O)O[C@@H]1CN(C(=O)NCCc2ccccc2)CC1(C)C)C(=O)C(=O)N[C@H](C)c1ccccc1` [Example 65, (3S)-4,4-Dimethyl-1-{[(2-phenylethyl)amino]carbonyl}pyrrolidinyl (1S)-1-(oxo{[(1R)-1-phenylethyl]amino}acetyl)pentylcarbamate], `CCCC[C@H](NC(=O)O[C@@H]1CN(C(=O)NC(=O)c2ccccc2)CC1(C)C)C(=O)C(=O)N[C@H](C)c1ccccc1` [Example 75, (3S)-1-[(Benzoylamino)carbonyl]-4,4-dimethylpyrrolidinyl (1S)-1-(oxo{[(1R)-1-phenylethyl]amino}acetyl)pentylcarbamate] is higher in IC50: 1 to 10 nM for the first, 10 to 100 nM for the second.

`CCCC[C@H](NC(=O)O[C@@H]1CN(C(=O)c2cccnc2)CC1(C)C)C(=O)C(=O)N[C@H](C)c1ccccc1` [Example 66, (3S)-4,4-Dimethyl-1-(3-pyridinylcarbonyl)pyrrolidinyl (1S)-1-(oxo{[(1R)-1-phenylethyl]amino}acetyl)pentylcarbamate] and `CCCC[C@H](NC(=O)O[C@@H]1CN(C(=O)Nc2ccc(C#N)cc2)CC1(C)C)C(=O)C(=O)N[C@H](C)c1ccccc1` [Example 69, (3S)-1-[(4-Cyanoanilino)carbonyl]-4,4-dimethylpyrrolidinyl (1S)-1-(oxo{[(1R)-1-phenylethyl]amino}acetyl)pentylcarbamate] fall in the same range of IC50: 10 to 100 nM for the first, 10 to 100 nM for the second.

Compared with `CCCC[C@H](NC(=O)O[C@@H]1CN(C(=O)Nc2c(C)noc2C)CC1(C)C)C(=O)C(=O)N[C@H](C)c1ccccc1` [Example 67, (3S)-1-{[(3,5-Dimethyl-4-isoxazolyl)amino]carbonyl}-4,4-dimethylpyrrolidinyl (1S)-1-(oxo{[(1R)-1-phenylethyl]amino}acetyl)pentylcarbamate], `CCCC[C@H](NC(=O)O[C@@H]1CN(C(=O)Nc2cc(F)ccc2C)CC1(C)C)C(=O)C(=O)N[C@H](C)c1ccccc1` [Example 72, (3S)-1-[(5-Fluoro-2-methylanilino)carbonyl]-4,4-dimethylpyrrolidinyl (1S)-1-(oxo{[(1R)-1-phenylethyl]amino}acetyl)pentylcarbamate] is lower in IC50: 10 to 100 nM for the first, 1 to 10 nM for the second. The second is the more potent here.

`CCCC[C@H](NC(=O)O[C@@H]1CN(C(=O)NC2CCCCC2)CC1(C)C)C(=O)C(=O)N[C@H](C)c1ccccc1` [Example 68, (3S)-1-[(Cyclohexylamino)carbonyl]-4,4-dimethylpyrrolidinyl (1S)-1-(oxo{[(1R)-1-phenylethyl]amino}acetyl)pentylcarbamate] and `CCCC[C@H](NC(=O)O[C@@H]1CN(C(=O)N2CCCC2)CC1(C)C)C(=O)C(=O)N[C@H](C)c1ccccc1` [Example 74, (3S)-4,4-Dimethyl-1-(1-pyrrolidinylcarbonyl)pyrrolidinyl (1S)-1-(oxo{[(1R)-1-phenylethyl]amino}acetyl)pentylcarbamate] fall in the same range of IC50: 10 to 100 nM for the first, 10 to 100 nM for the second.

First: CCCC[C@H](NC(=O)O[C@@H]1CN(C(=O)Nc2ccc(C(F)(F)F)cc2)CC1(C)C)C(=O)C(=O)N[C@H](C)c1ccccc1 [Example 70, (3S)-4,4-Dimethyl-1-{[4-(trifluoromethyl)anilino]carbonyl}pyrrolidinyl (1S)-1-(oxo {[(1R)-1-phenylethyl]amino}acetyl)pentylcarbamate]
Second: CCCC[C@H](NC(=O)O[C@@H]1CN(C(=O)NS(=O)(=O)c2ccc(C)cc2)CC1(C)C)C(=O)C(=O)N[C@H](C)c1ccccc1 [Example 76, (3S)-4,4-Dimethyl-1-({[(4-methylphenyl)sulfonyl]amino}carbonyl)pyrrolidinyl (1S)-1-(oxo{[(1R)-1-phenylethyl]amino}acetyl)pentylcarbamate]
The IC50 of the first is lower: 1 to 10 nM for the first, 100 to 1000 nM for the second. The first is the more potent here.

`CCCC[C@H](NC(=O)O[C@@H]1CN(C(=O)N2CCOCC2)CC1(C)C)C(=O)C(=O)N[C@H](C)c1ccccc1` [Example 73, (3S)-4,4-Dimethyl-1-(4-morpholinylcarbonyl)pyrrolidinyl (1S)-1-(oxo{[(1R)-1-phenylethyl]amino}acetyl)pentylcarbamate] and `CCCCC(NC(=O)O[C@@H]1COCC1(C)C)C(=O)C(=O)N[C@H](C)c1ccccc1` (stereo partly drawn) [Example 83, (3S)-4,4-Dimethyltetrahydro-3-furanyl 1-(oxo{[(1R)-1-phenylethyl]amino}acetyl)pentylcarbamate] fall in the same range of IC50: 10 to 100 nM for the first, 10 to 100 nM for the second.

First: CCCC[C@H](NC(=O)O[C@@H]1CN(S(=O)(=O)c2ccccc2)CC1(C)C)C(=O)C(=O)N[C@H](C)c1ccccc1 [Example 77, (3S)-4,4-Dimethyl-1-(phenylsulfonyl)pyrrolidinyl (1S)-1-(oxo{[(1R)-1-phenylethyl]amino}acetyl)pentylcarbamate]
Second: CCCC[C@H](NC(=O)O[C@@H]1CN(S(=O)(=O)Cc2ccccc2)CC1(C)C)C(=O)C(=O)N[C@H](C)c1ccccc1 [Example 78, (3S)-1-(Benzylsulfonyl)-4,4-dimethylpyrrolidinyl (1S)-1-(oxo{[(1R)-1-phenylethyl]amino}acetyl)pentylcarbamate]
The IC50 of the first is lower: 1 to 10 nM for the first, 10 to 100 nM for the second. The first is the more potent here.

`CCCC[C@H](NC(=O)O[C@@H]1CN(S(=O)(=O)c2ccc3c(c2)OCO3)CC1(C)C)C(=O)C(=O)N[C@H](C)c1ccccc1` [Example 79, (3S)-1-(1,3-Benzodioxol-5-ylsulfonyl)-4,4-dimethylpyrrolidinyl (1S)-1-(oxo{[(1R)-1-phenylethyl]amino}acetyl)pentylcarbamate] and `CCCC[C@H](NC(=O)O[C@@H]1CN(S(=O)(=O)c2ccc3c(c2)OCCO3)CC1(C)C)C(=O)C(=O)N[C@H](C)c1ccccc1` [Example 80, (3S)-1-(2,3-Dihydro-1,4-benzodioxin-6-ylsulfonyl)-4,4-dimethylpyrrolidinyl (1S)-1-(oxo{[(1R)-1-phenylethyl]amino}acetyl)pentylcarbamate] fall in the same range of IC50: 10 to 100 nM for the first, 10 to 100 nM for the second.

`CCCC[C@H](NC(=O)O[C@@H]1CN(c2nc3ccccc3s2)CC1(C)C)C(=O)C(=O)Nc1ccn[nH]1` [Example 81, (3S)-1-(1,3-Benzothiazol-2-yl)-4,4-dimethylpyrrolidinyl (1S)-1-[oxo(1H-pyrazol-5-ylamino)acetyl]pentylcarbamate] was tested, and the IC50 was 0.1 to 1 nM.
